The assay addresses T1, human ferroportin (Homo sapiens, UniProt Q9NP59).
T1 construct: luciferase reporter (read with the Nano-Glo Luciferase Assay System); expressed in transfected cells; host or cells: CHO cells, stably transfected, expression induced with doxycycline
T1 sequence (Q9NP59 1-571): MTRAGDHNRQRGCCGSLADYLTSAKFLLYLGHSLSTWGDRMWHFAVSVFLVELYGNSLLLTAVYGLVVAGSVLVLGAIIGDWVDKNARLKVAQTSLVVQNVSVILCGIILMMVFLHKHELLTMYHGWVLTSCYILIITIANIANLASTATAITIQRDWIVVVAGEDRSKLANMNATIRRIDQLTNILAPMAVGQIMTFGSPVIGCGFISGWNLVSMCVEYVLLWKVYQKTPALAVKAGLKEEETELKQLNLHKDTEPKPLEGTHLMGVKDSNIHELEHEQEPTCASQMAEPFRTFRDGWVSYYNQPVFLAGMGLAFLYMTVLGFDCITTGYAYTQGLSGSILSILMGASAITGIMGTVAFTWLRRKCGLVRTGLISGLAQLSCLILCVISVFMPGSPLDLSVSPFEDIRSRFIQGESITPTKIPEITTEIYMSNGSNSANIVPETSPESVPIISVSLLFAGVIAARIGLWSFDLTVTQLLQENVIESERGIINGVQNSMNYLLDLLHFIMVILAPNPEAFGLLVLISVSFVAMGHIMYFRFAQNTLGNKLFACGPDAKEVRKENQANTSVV
The assay is described as follows: Biological in-vitro ferroportin internalization assay (luciferase reporter). It is filed as cell-based. The following applies: average pEC50; stably-transfected CHO cell line expressing human ferroportin tagged to a luciferase reporter; 6 h incubation with test compound. The essentials:
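Stably transfected CHO cells expressing luciferase-tagged human ferroportin, plated 24 h with ferric ammonium citrate and induced with doxycycline for 24 h. Compounds incubated 6 h, then luciferase activity measured by Nano-Glo; average pEC50 reported.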
A general note: Reporter assays use an easily measured gene product as a stand-in for the process of interest.

The compound `CN(CC(=O)Nc1cccc(F)c1)c1nc(-c2cc(OCCN3CCCC3)ccn2)nc2c1CCC2` [Compound 252, N-(3-fluorophenyl)-2-[methyl(2-{4-[2-(pyrrolidin-1-yl)ethoxy]pyridin-2-yl}-5H,6H,7H-cyclopenta[d]pyrimidin-4-yl)amino]acetamide] returned a pEC50 of 7.9.

`COc1ccc(NC(=O)CN(C)c2nc(-c3cc(OC4COC4)ccn3)nc3c2CCC3)cn1` [Compound 253, N-(6-methoxypyridin-3-yl)-2-[methyl({2-[4-(oxetan-3-yloxy)pyridin-2-yl]-5H,6H,7H-cyclopenta[d]pyrimidin-4-yl})amino]acetamide] showed a negative-log EC50 (pEC50) of 7.6.

In turn, `CN(CC(=O)Nc1cnn(C)c1)c1nc(-c2cc(OC3COC3)ccn2)nc2c1CCC2` [Compound 254, 2-[methyl({2-[4-(oxetan-3-yloxy)pyridin-2-yl]-5H,6H,7H-cyclopenta[d]pyrimidin-4-yl})amino]-N-(1-methyl-1H-pyrazol-4-yl)acetamide] had a pEC50 of 7. Turning to `CN(CC(=O)N1CCCCC1)c1nc(-c2cc3ccccc3cn2)nc2c1CCC2` [Compound 255, 2-{[2-(isoquinolin-3-yl)-5H,6H,7H-cyclopenta[d]pyrimidin-4-yl](methyl)amino}-1-(piperidin-1-yl)ethan-1-one], the pEC50 was 6.9. `CN1CCN(C(=O)CN(C)c2nc(-c3cc4ccccc4cn3)nc3c2CCC3)CC1` [Compound 256, 2-{[2-(isoquinolin-3-yl)-5H,6H,7H-cyclopenta[d]pyrimidin-4-yl](methyl)amino}-1-(4-methylpiperazin-1-yl)ethan-1-one] came in with a pEC50 of 6.6. `COc1ccc(NC(=O)CN(C)c2nc(-c3cc4ncccc4cn3)nc3c2CCC3)cn1` [Compound 257, N-(6-methoxypyridin-3-yl)-2-{methyl[2-(1,6-naphthyridin-7-yl)-5H,6H,7H-cyclopenta[d]pyrimidin-4-yl]amino}acetamide] showed a negative-log EC50 (pEC50) of 7.

`COc1ccc(NC(=O)CN(C)c2nc(-c3cc4cnccc4cn3)nc3c2CCC3)cn1` [Compound 258, N-(6-methoxypyridin-3-yl)-2-{methyl[2-(2,6-naphthyridin-3-yl)-5H,6H,7H-cyclopenta[d]pyrimidin-4-yl]amino}acetamide] had a pEC50 of 6.3. The value for `CCOc1ccnc(-c2nc3c(c(N(C)CC(=O)Nc4cnc(OC)nc4)n2)CCC3)c1` [Compound 259, 2-{[2-(4-ethoxypyridin-2-yl)-5H,6H,7H-cyclopenta[d]pyrimidin-4-yl](methyl)amino}-N-(2-methoxypyrimidin-5-yl)acetamide] was 7.1; that for `COc1ncc(NC(=O)CN(C)c2nc(-c3cc(OCC(C)(C)O)ccn3)nc3c2CCC3)cn1` [Compound 260, 2-({2-[4-(2-hydroxy-2-methylpropoxy)pyridin-2-yl]-5H,6H,7H-cyclopenta[d]pyrimidin-4-yl}(methyl)amino)-N-(2-methoxypyrimidin-5-yl)acetamide] was 7.6. As to `COc1ccc2cnc(-c3nc4c(c(N(C)CC(=O)NC(C)(C)C)n3)CCC4)cc2c1` [Compound 261, N-tert-butyl-2-{[2-(6-methoxyisoquinolin-3-yl)-5H,6H,7H-cyclopenta[d]pyrimidin-4-yl](methyl)amino}acetamide], the pEC50 is reported as 7.6.

`COc1ccc2cc(-c3nc4c(c(N(C)CC(=O)NC(C)(C)C)n3)CCC4)ncc2c1` [Compound 262, N-tert-butyl-2-{[2-(7-methoxyisoquinolin-3-yl)-5H,6H,7H-cyclopenta[d]pyrimidin-4-yl](methyl)amino}acetamide] yielded a pEC50 of 7.1. The compound `CN(CC(=O)N1CCCCC1)c1nc(-c2cc(OCCO)ccn2)nc2c1CCC2` [Compound 263, 2-({2-[4-(2-hydroxyethoxy)pyridin-2-yl]-5H,6H,7H-cyclopenta[d]pyrimidin-4-yl}(methyl)amino)-1-(piperidin-1-yl)ethan-1-one] came in with a pEC50 of 8.

`CN(CC(=O)Nc1ccc(F)nc1)c1nc(-c2cc3cnn(C4CCCCO4)c3cn2)nc2c1CCC2` (stereo not drawn) [Compound 264, N-(6-fluoropyridin-3-yl)-2-[methyl({2-[1-(oxan-2-yl)-1H-pyrazolo[3,4-c]pyridin-5-yl]-5H,6H,7H-cyclopenta[d]pyrimidin-4-yl})amino]acetamide] had a pEC50 of 6.5. Compound `CN(CC(=O)Nc1ccc(F)nc1)c1nc(-c2cc3cn[nH]c3cn2)nc2c1CCC2` [Compound 266, N-(6-fluoropyridin-3-yl)-2-[methyl(2-{1H-pyrazolo[3,4-c]pyridin-5-yl}-5H,6H,7H-cyclopenta[d]pyrimidin-4-yl)amino]acetamide] had a pEC50 of 7.3. Turning to `Cc1ccc(NC(=O)CN(C)c2nc(-c3cc4cn[nH]c4cn3)nc3c2CCC3)cn1` [Compound 267, 2-[methyl(2-{1H-pyrazolo[3,4-c]pyridin-5-yl}-5H,6H,7H-cyclopenta[d]pyrimidin-4-yl)amino]-N-(6-methylpyridin-3-yl)acetamide], the pEC50 was 7.1. `COc1ccc(NC(=O)CN(C)c2nc(-c3cc4ccncc4cn3)nc3c2CCC3)cn1` [Compound 268, N-(6-methoxypyridin-3-yl)-2-{methyl[2-(2,7-naphthyridin-3-yl)-5H,6H,7H-cyclopenta[d]pyrimidin-4-yl]amino}acetamide]: the pEC50 worked out at 6. For `COc1ccc(NC(=O)CN(C)c2nc(-c3cc(OCCO)ccn3)nc3c2CCC3)cc1` [Compound 269, 2-({2-[4-(2-hydroxyethoxy)pyridin-2-yl]-5H,6H,7H-cyclopenta[d]pyrimidin-4-yl}(methyl)amino)-N-(4-methoxyphenyl)acetamide] the value was 8.4; for `Cc1ccc(NC(=O)CN(C)c2nc(-c3cc4c(CO)cccc4cn3)nc3c2CCC3)cn1` [Compound 270, 2-({2-[5-(hydroxymethyl)isoquinolin-3-yl]-5H,6H,7H-cyclopenta[d]pyrimidin-4-yl}(methyl)amino)-N-(6-methylpyridin-3-yl)acetamide], 7.5; for `CN(CC(=O)Nc1cccc(F)c1)c1nc(-c2cn(C)cn2)nc2c1CCC2` [Compound 271, N-(3-fluorophenyl)-2-{methyl[2-(1-methyl-1H-imidazol-4-yl)-5H,6H,7H-cyclopenta[d]pyrimidin-4-yl]amino}acetamide], 7.4. The compound `COc1cccc(NC(=O)CN(C)c2nc(-c3cn(C)cn3)nc3c2CCC3)c1` [Compound 272, N-(3-methoxyphenyl)-2-{methyl[2-(1-methyl-1H-imidazol-4-yl)-5H,6H,7H-cyclopenta[d]pyrimidin-4-yl]amino}acetamide] returned a negative-log EC50 (pEC50) of 7.8. The compound `C[C@H](C(=O)Nc1ccnnc1)N(C)c1nc(-c2cc3ccccc3cn2)nc2c1CCC2` [Compound 273, (2R)-2-{[2-(isoquinolin-3-yl)-5H,6H,7H-cyclopenta[d]pyrimidin-4-yl](methyl)amino}-N-(pyridazin-4-yl)propanamide] registered a negative-log EC50 (pEC50) of 7.8. `C[C@H](C(=O)Nc1ccc(C(F)(F)F)nc1)N(C)c1nc(-c2cc3ccccc3cn2)nc2c1CCC2` [Compound 274, (2R)-2-{[2-(isoquinolin-3-yl)-5H,6H,7H-cyclopenta[d]pyrimidin-4-yl](methyl)amino}-N-[6-(trifluoromethyl)pyridin-3-yl]propanamide] showed a pEC50 of 6.8.

The compound `CN(CC(=O)NC(C)(C)CO)c1nc(-c2cn(CCCO)cn2)nc2c1CCC2` [Compound 275, N-(1-hydroxy-2-methylpropan-2-yl)-2-({2-[1-(3-hydroxypropyl)-1H-imidazol-4-yl]-5H,6H,7H-cyclopenta[d]pyrimidin-4-yl}(methyl)amino)acetamide] showed a negative logarithm of the EC50 (pEC50) of 7. The compound `COc1ncc(NC(=O)CN(C)c2nc(-c3cc(OC(C)(C)CO)ccn3)nc3c2CCC3)cn1` [Compound 276, 2-[(2-{4-[(1-hydroxy-2-methylpropan-2-yl)oxy]pyridin-2-yl}-5H,6H,7H-cyclopenta[d]pyrimidin-4-yl)(methyl)amino]-N-(2-methoxypyrimidin-5-yl)acetamide] displayed a pEC50 of 7.7. `C[C@H](C(=O)Nc1cccc(F)c1)N(C)c1nc(-c2cn(C)cn2)nc2c1CCC2` [Compound 277, (2R)—N-(3-fluorophenyl)-2-{methyl[2-(1-methyl-1H-imidazol-4-yl)-5H,6H,7H-cyclopenta[d]pyrimidin-4-yl]amino}propanamide]: the pEC50 is given as 8.2. On to `COc1cccc(NC(=O)[C@@H](C)N(C)c2nc(-c3cn(C)cn3)nc3c2CCC3)c1` [Compound 278, (2R)—N-(3-methoxyphenyl)-2-{methyl[2-(1-methyl-1H-imidazol-4-yl)-5H,6H,7H-cyclopenta[d]pyrimidin-4-yl]amino}propanamide], for which the pEC50 worked out at 7.8. For `COc1cccc(NC(=O)CN(C)c2nc(-c3cc(OCCO)ccn3)nc3c2CCC3)c1` [Compound 279, 2-({2-[4-(2-hydroxyethoxy)pyridin-2-yl]-5H,6H,7H-cyclopenta[d]pyrimidin-4-yl}(methyl)amino)-N-(3-methoxyphenyl)acetamide] the value was 8.2.

For orientation: pEC50 means the negative decadic logarithm of the EC50, by convention in mol/L. Low readings indicate a high EC50, high ones a low EC50.
